Tests used:
Assay type in all cases: cell-based
[1] = test system: E. faecalis UC9217; experiment: Antibacterial activity, MIC; conditions: strain UC9217
[2] = test system: S. aureus UC9218; experiment: Antibacterial activity, MIC; conditions: strain UC9218
[3] = test system: S. pneumoniae UC9912; experiment: Antibacterial activity, MIC; conditions: strain UC9912
[4] = test system: H. influenzae UC30063; experiment: Antibacterial activity, MIC; conditions: strain UC30063
[5] = test system: M. catarrhalis UC30607; experiment: Antibacterial activity, MIC; conditions: strain UC30607
[6] = test system: E. coli UC6674; experiment: Antibacterial activity, MIC; conditions: strain UC6674
[7] = test system: E. faecalis, S. aureus, S. pneumoniae, H. influenzae, M. catarrhalis, E. coli; experiment: Antibacterial activity, overall statement on Table 1; conditions: summary in words of Table 1

Row | MIC E. faecalis UC9217 [1] | MIC S. aureus UC9218 [2] | MIC S. pneumoniae UC9912 [3] | MIC H. influenzae UC30063 [4] | MIC M. catarrhalis UC30607 [5] | MIC E. coli UC6674 [6] | Structure (SMILES) | antibacterial activity [7]
1 | 0.25 :g/mL | 0.5 :g/mL | 0.125 :g/mL | 8 :g/mL | 1 :g/mL | 16 :g/mL | CC(=O)NC[C@H]1CN(c2ccc(N3CCN(c4cc5c(cc4F)c(=O)c(C(=O)O)cn5C4CC4)CC3)c(F)c2)C(=O)O1 [Example 1] | 
2 | 0.5 :g/mL | 1 :g/mL | 0.25 :g/mL | 4 :g/mL | 2 :g/mL | 16 :g/mL | CC(=O)NC[C@H]1CN(c2ccc(N3CCN(c4c(F)cc5c(=O)c(C(=O)O)cn6c5c4OCC6C)CC3)c(F)c2)C(=O)O1 (stereo partly shown) [Example 2] | 
3 | 8 :g/mL | 2 :g/mL | 4 :g/mL | 0.5 :g/mL | 4 :g/mL | 4 :g/mL | CC(=O)NC[C@H]1CN(c2ccc(-c3cc4c(cc3F)c(=O)c(C(=O)O)cn4C3CC3)c(F)c2)C(=O)O1 [Example 3, 7-(4{(5S)-5-[(Acetylamino)methyl]2-oxo-1,3-oxazolidin-3-yl}-2-fluorophenyl)-1-cyclopropyl-6-fluoro-4-oxo-1,4-dihydro-3-quinolinecarboxylic acid] | potent antibacterial activity

From US6869965B2, “Antimicrobial quinolone derivatives and use of the same to treat bacterial infections” (Pharmacia & Upjohn Company, priority 2000, dated 2005)
